{"source": "paper PMC7181660", "about": "“A novel specific PERK activator reduces toxicity and extends survival in Huntington's disease models” (Scientific Reports, 2020)", "assay_in_all_cases": "biochemical", "type_in_all_cases": "biochemical", "key": {"panel of 391 kinases [1]": {"biological_target": "panel of 391 kinases (Homo sapiens, UniProt Q8TDX7)", "sequence (Q8TDX7 whole entry)": "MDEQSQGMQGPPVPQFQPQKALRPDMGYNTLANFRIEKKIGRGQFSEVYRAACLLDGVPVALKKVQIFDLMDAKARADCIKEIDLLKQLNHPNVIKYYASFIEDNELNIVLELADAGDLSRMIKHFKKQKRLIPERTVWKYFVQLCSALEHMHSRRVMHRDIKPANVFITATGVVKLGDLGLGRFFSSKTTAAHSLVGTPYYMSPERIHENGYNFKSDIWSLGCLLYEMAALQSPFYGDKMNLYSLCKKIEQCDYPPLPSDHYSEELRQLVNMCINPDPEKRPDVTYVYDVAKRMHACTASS", "settings": "NEK7, MK-28 1 µM, ATP 1 µM"}, "panel of 391 kinases [2]": {"biological_target": "panel of 391 kinases (Homo sapiens, UniProt Q16620)", "settings": "TRKB, MK-28 1 µM, ATP 1 µM"}, "panel of 391 kinases [3]": {"biological_target": "panel of 391 kinases (Homo sapiens, UniProt Q13153)", "settings": "PAK1, MK-28 1 µM, ATP 1 µM"}, "panel of 391 kinases [4]": {"biological_target": "panel of 391 kinases (Homo sapiens, UniProt Q16288)", "settings": "TRKC, MK-28 1 µM, ATP 1 µM"}, "panel of 391 kinases [5]": {"biological_target": "panel of 391 kinases (Homo sapiens, UniProt Q9BYT3)", "settings": "STK33, MK-28 1 µM, ATP 1 µM"}, "panel of 391 kinases [6]": {"biological_target": "panel of 391 kinases (Homo sapiens, UniProt Q16584)", "sequence (Q16584 whole entry)": "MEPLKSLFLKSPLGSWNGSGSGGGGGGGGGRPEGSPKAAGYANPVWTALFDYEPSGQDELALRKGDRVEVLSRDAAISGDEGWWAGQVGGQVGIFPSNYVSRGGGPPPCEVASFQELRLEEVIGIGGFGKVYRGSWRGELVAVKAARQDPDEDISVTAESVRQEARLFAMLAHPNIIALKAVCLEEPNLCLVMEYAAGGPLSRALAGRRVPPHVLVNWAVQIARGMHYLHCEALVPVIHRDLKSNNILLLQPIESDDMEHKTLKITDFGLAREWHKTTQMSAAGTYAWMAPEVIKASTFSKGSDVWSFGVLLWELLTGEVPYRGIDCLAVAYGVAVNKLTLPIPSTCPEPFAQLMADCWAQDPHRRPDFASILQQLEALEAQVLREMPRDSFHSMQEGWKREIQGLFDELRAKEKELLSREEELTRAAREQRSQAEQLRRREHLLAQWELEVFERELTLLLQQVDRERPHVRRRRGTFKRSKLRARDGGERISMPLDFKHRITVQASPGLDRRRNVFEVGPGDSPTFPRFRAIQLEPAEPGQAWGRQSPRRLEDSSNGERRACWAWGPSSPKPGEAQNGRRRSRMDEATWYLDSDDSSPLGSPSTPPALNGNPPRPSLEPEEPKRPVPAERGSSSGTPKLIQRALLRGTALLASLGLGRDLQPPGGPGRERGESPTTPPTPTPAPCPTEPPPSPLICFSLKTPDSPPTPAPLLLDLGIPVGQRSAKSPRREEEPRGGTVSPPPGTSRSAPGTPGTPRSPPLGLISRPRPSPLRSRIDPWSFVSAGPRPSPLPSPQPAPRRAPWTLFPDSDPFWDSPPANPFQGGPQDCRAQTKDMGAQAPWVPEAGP", "settings": "MLK3/MAP3K11, MK-28 1 µM, ATP 1 µM"}, "panel of 391 kinases [7]": {"biological_target": "panel of 391 kinases (Homo sapiens, UniProt Q9Y2U5)", "settings": "MEKK2, MK-28 1 µM, ATP 1 µM"}, "panel of 391 kinases [8]": {"biological_target": "panel of 391 kinases (Homo sapiens, UniProt O00506)", "settings": "STK25/YSK1, MK-28 1 µM, ATP 1 µM"}, "panel of 391 kinases [9]": {"biological_target": "panel of 391 kinases (Homo sapiens, UniProt P19784)", "settings": "CK2a2, MK-28 1 µM, ATP 1 µM"}, "panel of 391 kinases [10]": {"biological_target": "panel of 391 kinases (Homo sapiens, UniProt Q9NY57)", "sequence (Q9NY57 whole entry)": "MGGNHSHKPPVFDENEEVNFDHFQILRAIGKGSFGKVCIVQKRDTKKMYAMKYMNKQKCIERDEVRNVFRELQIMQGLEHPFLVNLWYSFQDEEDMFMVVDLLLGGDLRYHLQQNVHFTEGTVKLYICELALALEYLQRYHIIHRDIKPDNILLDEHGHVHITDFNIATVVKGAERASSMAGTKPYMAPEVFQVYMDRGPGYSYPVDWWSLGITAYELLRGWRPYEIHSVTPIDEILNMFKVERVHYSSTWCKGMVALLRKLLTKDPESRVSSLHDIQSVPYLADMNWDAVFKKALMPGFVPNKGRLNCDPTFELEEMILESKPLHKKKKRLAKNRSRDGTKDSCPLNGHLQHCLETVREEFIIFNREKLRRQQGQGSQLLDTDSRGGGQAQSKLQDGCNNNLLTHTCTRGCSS", "settings": "STK32B/YANK2, MK-28 1 µM, ATP 1 µM"}, "panel of 391 kinases [11]": {"biological_target": "panel of 391 kinases (Homo sapiens, UniProt P08581)", "sequence (P08581 25-1390)": "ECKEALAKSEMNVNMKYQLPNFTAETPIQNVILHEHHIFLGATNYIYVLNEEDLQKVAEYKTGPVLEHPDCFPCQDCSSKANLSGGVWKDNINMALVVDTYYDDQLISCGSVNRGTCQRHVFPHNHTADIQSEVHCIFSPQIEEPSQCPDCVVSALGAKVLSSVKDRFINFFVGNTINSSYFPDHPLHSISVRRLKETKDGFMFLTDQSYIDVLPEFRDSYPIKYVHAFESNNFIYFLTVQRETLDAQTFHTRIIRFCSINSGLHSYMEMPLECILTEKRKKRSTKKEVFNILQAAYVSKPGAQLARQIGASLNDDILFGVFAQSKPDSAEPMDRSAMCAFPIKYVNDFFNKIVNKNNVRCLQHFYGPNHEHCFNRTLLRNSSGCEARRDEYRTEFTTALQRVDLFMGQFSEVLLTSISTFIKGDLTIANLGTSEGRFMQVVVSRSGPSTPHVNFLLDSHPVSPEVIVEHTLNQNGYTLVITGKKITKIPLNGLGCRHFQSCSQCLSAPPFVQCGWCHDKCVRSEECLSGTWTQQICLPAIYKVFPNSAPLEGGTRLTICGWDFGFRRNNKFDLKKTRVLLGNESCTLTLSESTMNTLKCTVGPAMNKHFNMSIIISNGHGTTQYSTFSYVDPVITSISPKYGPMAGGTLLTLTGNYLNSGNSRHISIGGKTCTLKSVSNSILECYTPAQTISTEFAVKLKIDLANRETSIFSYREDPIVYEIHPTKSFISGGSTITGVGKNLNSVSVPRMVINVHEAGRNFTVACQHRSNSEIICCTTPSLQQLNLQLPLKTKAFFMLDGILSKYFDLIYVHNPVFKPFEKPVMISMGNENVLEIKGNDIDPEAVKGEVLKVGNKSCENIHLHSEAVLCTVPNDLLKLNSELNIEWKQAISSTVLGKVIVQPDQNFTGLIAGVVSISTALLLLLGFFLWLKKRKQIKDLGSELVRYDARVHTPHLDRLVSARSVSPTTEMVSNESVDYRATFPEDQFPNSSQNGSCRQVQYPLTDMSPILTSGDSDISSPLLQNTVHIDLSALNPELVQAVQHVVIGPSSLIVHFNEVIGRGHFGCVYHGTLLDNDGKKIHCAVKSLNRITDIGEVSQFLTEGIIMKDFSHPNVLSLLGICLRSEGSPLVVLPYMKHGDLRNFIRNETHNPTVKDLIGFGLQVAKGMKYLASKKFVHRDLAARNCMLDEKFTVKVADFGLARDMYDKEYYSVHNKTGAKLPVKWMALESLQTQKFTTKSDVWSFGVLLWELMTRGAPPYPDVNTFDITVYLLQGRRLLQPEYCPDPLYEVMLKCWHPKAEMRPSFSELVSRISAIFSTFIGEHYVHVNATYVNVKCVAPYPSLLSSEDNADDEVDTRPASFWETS", "settings": "c-MET, MK-28 1 µM, ATP 1 µM"}, "panel of 391 kinases [12]": {"biological_target": "panel of 391 kinases (Homo sapiens, UniProt Q15746)", "settings": "MLCK/MYLK, MK-28 1 µM, ATP 1 µM"}, "panel of 391 kinases [13]": {"biological_target": "panel of 391 kinases (Homo sapiens, UniProt P41240)", "settings": "CSK, MK-28 1 µM, ATP 1 µM"}, "panel of 391 kinases [14]": {"biological_target": "panel of 391 kinases (Homo sapiens, UniProt Q8IVH8)", "sequence (Q8IVH8 whole entry)": "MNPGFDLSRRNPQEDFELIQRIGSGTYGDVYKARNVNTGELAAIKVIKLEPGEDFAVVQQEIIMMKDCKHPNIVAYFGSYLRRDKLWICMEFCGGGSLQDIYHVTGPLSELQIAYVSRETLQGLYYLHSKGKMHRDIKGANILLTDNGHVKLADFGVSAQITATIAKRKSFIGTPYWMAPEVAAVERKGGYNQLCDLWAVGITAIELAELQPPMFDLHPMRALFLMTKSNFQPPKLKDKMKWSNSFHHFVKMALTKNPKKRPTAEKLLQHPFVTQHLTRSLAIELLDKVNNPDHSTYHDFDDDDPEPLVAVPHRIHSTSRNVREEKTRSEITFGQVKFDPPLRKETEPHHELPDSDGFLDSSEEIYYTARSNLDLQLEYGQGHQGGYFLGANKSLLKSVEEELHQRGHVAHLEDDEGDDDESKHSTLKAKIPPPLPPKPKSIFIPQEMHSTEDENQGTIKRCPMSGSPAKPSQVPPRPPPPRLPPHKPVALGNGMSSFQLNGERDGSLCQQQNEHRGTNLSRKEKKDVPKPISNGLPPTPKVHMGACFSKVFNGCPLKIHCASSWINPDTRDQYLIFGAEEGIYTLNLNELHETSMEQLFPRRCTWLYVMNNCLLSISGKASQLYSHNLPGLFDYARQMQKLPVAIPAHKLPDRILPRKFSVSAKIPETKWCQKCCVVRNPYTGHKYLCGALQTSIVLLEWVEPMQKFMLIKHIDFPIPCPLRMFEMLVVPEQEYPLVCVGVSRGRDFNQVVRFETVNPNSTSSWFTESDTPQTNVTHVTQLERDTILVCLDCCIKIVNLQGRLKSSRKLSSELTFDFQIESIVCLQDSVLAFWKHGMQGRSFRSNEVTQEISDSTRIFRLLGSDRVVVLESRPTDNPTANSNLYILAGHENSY", "settings": "GLK/MAP4K3, MK-28 1 µM, ATP 1 µM"}, "panel of 391 kinases [15]": {"biological_target": "panel of 391 kinases (Homo sapiens, UniProt Q96PF2)", "settings": "TSSK2, MK-28 1 µM, ATP 1 µM"}, "panel of 391 kinases [16]": {"biological_target": "panel of 391 kinases (Homo sapiens, UniProt Q9H2G2)", "settings": "SLK/STK2, MK-28 1 µM, ATP 1 µM"}, "panel of 391 kinases [17]": {"biological_target": "panel of 391 kinases (Homo sapiens, UniProt Q9BQI3)", "settings": "kinase EIF2AK1, compound at 1 µM, single dose in duplicates, 1 µM ATP"}, "panel of 391 kinases [18]": {"biological_target": "panel of 391 kinases (Homo sapiens, UniProt O95382)", "settings": "MEKK6, MK-28 1 µM, ATP 1 µM"}, "panel of 391 kinases [19]": {"biological_target": "panel of 391 kinases (Homo sapiens, UniProt P29320)", "settings": "EPHA3, MK-28 1 µM, ATP 1 µM"}, "panel of 391 kinases [20]": {"biological_target": "panel of 391 kinases (Homo sapiens, UniProt Q9Y572)", "settings": "RIPK3, MK-28 1 µM, ATP 1 µM"}, "panel of 391 kinases [21]": {"biological_target": "panel of 391 kinases (Homo sapiens, UniProt Q05397)", "sequence (Q05397 whole entry)": "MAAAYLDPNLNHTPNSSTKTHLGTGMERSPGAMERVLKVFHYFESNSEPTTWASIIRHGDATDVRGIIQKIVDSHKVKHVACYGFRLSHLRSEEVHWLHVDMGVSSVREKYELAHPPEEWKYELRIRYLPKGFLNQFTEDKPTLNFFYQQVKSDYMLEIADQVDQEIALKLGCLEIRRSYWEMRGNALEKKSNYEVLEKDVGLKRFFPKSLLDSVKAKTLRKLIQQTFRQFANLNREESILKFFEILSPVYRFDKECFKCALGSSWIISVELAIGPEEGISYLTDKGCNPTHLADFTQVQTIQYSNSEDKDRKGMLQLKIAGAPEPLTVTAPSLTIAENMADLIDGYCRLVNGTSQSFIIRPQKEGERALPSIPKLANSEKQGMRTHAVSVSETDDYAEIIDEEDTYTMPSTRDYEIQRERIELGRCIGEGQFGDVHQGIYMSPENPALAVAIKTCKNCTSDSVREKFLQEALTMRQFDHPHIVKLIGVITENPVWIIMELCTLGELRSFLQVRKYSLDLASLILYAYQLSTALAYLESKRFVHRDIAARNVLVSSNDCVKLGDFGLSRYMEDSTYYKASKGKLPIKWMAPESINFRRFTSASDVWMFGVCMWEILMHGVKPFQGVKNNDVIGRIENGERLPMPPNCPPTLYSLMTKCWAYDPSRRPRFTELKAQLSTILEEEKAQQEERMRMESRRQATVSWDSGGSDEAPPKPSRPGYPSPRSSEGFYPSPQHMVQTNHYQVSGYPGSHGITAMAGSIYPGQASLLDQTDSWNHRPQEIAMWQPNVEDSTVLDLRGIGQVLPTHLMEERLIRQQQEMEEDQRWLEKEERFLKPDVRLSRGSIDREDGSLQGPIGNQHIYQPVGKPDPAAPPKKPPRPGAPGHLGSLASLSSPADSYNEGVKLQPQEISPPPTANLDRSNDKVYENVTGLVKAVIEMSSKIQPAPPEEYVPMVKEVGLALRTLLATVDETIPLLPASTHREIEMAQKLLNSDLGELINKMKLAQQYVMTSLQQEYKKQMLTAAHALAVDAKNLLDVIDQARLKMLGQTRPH", "settings": "FAK/PTK2, MK-28 1 µM, ATP 1 µM"}, "panel of 391 kinases [22]": {"biological_target": "panel of 391 kinases (Homo sapiens, UniProt P07332)", "settings": "FES/FPS, MK-28 1 µM, ATP 1 µM"}, "panel of 391 kinases [23]": {"biological_target": "panel of 391 kinases (Homo sapiens, UniProt O15146)", "settings": "MUSK, MK-28 1 µM, ATP 1 µM"}, "panel of 391 kinases [24]": {"biological_target": "panel of 391 kinases (Homo sapiens, UniProt P07947)", "settings": "YES/YES1, MK-28 1 µM, ATP 1 µM"}, "panel of 391 kinases [25]": {"biological_target": "panel of 391 kinases (Homo sapiens, UniProt Q9HAZ1)", "settings": "CLK4, MK-28 1 µM, ATP 1 µM"}, "panel of 391 kinases [26]": {"biological_target": "panel of 391 kinases (Homo sapiens, UniProt P45985)", "settings": "MKK4, MK-28 1 µM, ATP 1 µM"}, "[27]": {"settings": "read-out: % Enzyme Activity (relative to DMSO controls)"}}, "data": [{"molecule": "CN(/N=C\\c1ccc(O)c(O)c1)c1nc(-c2ccccc2)cc(-c2ccccc2)n1", "note": "[MK-28]", "values": [{"measurement": "% Enzyme Activity (relative to DMSO controls)", "setting": "panel of 391 kinases [1]", "value": 97.32, "unit": "%"}, {"measurement": "remaining activity at 1 µM", "setting": "panel of 391 kinases [1]; [27]", "value": 98.3, "unit": "%"}, {"measurement": "% Enzyme Activity (relative to DMSO controls)", "setting": "panel of 391 kinases [2]", "value": 96.28, "unit": "%"}, {"measurement": "remaining activity at 1 µM", "setting": "panel of 391 kinases [2]; [27]", "value": 96.3, "unit": "%"}, {"measurement": "% Enzyme Activity (relative to DMSO controls)", "setting": "panel of 391 kinases [3]", "value": 100.75, "unit": "%"}, {"measurement": "remaining activity at 1 µM", "setting": "panel of 391 kinases [3]; [27]", "value": 102, "unit": "%"}, {"measurement": "% Enzyme Activity (relative to DMSO controls)", "setting": "panel of 391 kinases [4]", "value": 91.11, "unit": "%"}, {"measurement": "remaining activity at 1 µM", "setting": "panel of 391 kinases [4]; [27]", "value": 92.9, "unit": "%"}, {"measurement": "% Enzyme Activity (relative to DMSO controls)", "setting": "panel of 391 kinases [5]", "value": 91.70, "unit": "%"}, {"measurement": "remaining activity at 1 µM", "setting": "panel of 391 kinases [5]; [27]", "value": 95.4, "unit": "%"}, {"measurement": "% Enzyme Activity (relative to DMSO controls)", "setting": "panel of 391 kinases [6]", "value": 162.84, "unit": "%"}, {"measurement": "remaining activity at 1 µM", "setting": "panel of 391 kinases [6]; [27]", "value": 168, "unit": "%"}, {"measurement": "% Enzyme Activity (relative to DMSO controls)", "setting": "panel of 391 kinases [7]", "value": 91.93, "unit": "%"}, {"measurement": "remaining activity at 1 µM", "setting": "panel of 391 kinases [7]; [27]", "value": 94, "unit": "%"}, {"measurement": "% Enzyme Activity (relative to DMSO controls)", "setting": "panel of 391 kinases [8]", "value": 93.29, "unit": "%"}, {"measurement": "remaining activity at 1 µM", "setting": "panel of 391 kinases [8]; [27]", "value": 95.7, "unit": "%"}, {"measurement": "% Enzyme Activity (relative to DMSO controls)", "setting": "panel of 391 kinases [9]", "value": 73.33, "unit": "%"}, {"measurement": "remaining activity at 1 µM", "setting": "panel of 391 kinases [9]; [27]", "value": 78, "unit": "%"}, {"measurement": "% Enzyme Activity (relative to DMSO controls)", "setting": "panel of 391 kinases [10]", "value": 100.71, "unit": "%"}, {"measurement": "remaining activity at 1 µM", "setting": "panel of 391 kinases [10]; [27]", "value": 101, "unit": "%"}, {"measurement": "% Enzyme Activity (relative to DMSO controls)", "setting": "panel of 391 kinases [11]", "value": 96.37, "unit": "%"}, {"measurement": "remaining activity at 1 µM", "setting": "panel of 391 kinases [11]; [27]", "value": 102, "unit": "%"}, {"measurement": "% Enzyme Activity (relative to DMSO controls)", "setting": "panel of 391 kinases [12]", "value": 91.99, "unit": "%"}, {"measurement": "remaining activity at 1 µM", "setting": "panel of 391 kinases [12]; [27]", "value": 93, "unit": "%"}, {"measurement": "% Enzyme Activity (relative to DMSO controls)", "setting": "panel of 391 kinases [13]", "value": 96.35, "unit": "%"}, {"measurement": "remaining activity at 1 µM", "setting": "panel of 391 kinases [13]; [27]", "value": 96.9, "unit": "%"}, {"measurement": "% Enzyme Activity (relative to DMSO controls)", "setting": "panel of 391 kinases [14]", "value": 94.50, "unit": "%"}, {"measurement": "remaining activity at 1 µM", "setting": "panel of 391 kinases [14]; [27]", "value": 95.9, "unit": "%"}, {"measurement": "% Enzyme Activity (relative to DMSO controls)", "setting": "panel of 391 kinases [15]", "value": 76.99, "unit": "%"}, {"measurement": "remaining activity at 1 µM", "setting": "panel of 391 kinases [15]; [27]", "value": 77.3, "unit": "%"}, {"measurement": "% Enzyme Activity (relative to DMSO controls)", "setting": "panel of 391 kinases [16]", "value": 100.63, "unit": "%"}, {"measurement": "remaining activity at 1 µM", "setting": "panel of 391 kinases [16]; [27]", "value": 102, "unit": "%"}, {"measurement": "% Enzyme Activity (relative to DMSO controls)", "setting": "panel of 391 kinases [17]", "value": 96.86, "unit": "%"}, {"measurement": "remaining activity at 1 µM", "setting": "panel of 391 kinases [17]; [27]", "value": 100, "unit": "%"}, {"measurement": "% Enzyme Activity (relative to DMSO controls)", "setting": "panel of 391 kinases [18]", "value": 101.22, "unit": "%"}, {"measurement": "remaining activity at 1 µM", "setting": "panel of 391 kinases [18]; [27]", "value": 108, "unit": "%"}, {"measurement": "% Enzyme Activity (relative to DMSO controls)", "setting": "panel of 391 kinases [19]", "value": 93.74, "unit": "%"}, {"measurement": "remaining activity at 1 µM", "setting": "panel of 391 kinases [19]; [27]", "value": 106, "unit": "%"}, {"measurement": "% Enzyme Activity (relative to DMSO controls)", "setting": "panel of 391 kinases [20]", "value": 100.16, "unit": "%"}, {"measurement": "remaining activity at 1 µM", "setting": "panel of 391 kinases [20]; [27]", "value": 101, "unit": "%"}, {"measurement": "% Enzyme Activity (relative to DMSO controls)", "setting": "panel of 391 kinases [21]", "value": 97.96, "unit": "%"}, {"measurement": "remaining activity at 1 µM", "setting": "panel of 391 kinases [21]; [27]", "value": 98.1, "unit": "%"}, {"measurement": "% Enzyme Activity (relative to DMSO controls)", "setting": "panel of 391 kinases [22]", "value": 91.44, "unit": "%"}, {"measurement": "remaining activity at 1 µM", "setting": "panel of 391 kinases [22]; [27]", "value": 95.1, "unit": "%"}, {"measurement": "% Enzyme Activity (relative to DMSO controls)", "setting": "panel of 391 kinases [23]", "value": 95.79, "unit": "%"}, {"measurement": "remaining activity at 1 µM", "setting": "panel of 391 kinases [23]; [27]", "value": 99.1, "unit": "%"}, {"measurement": "% Enzyme Activity (relative to DMSO controls)", "setting": "panel of 391 kinases [24]", "value": 96.24, "unit": "%"}, {"measurement": "remaining activity at 1 µM", "setting": "panel of 391 kinases [24]; [27]", "value": 97.6, "unit": "%"}, {"measurement": "% Enzyme Activity (relative to DMSO controls)", "setting": "panel of 391 kinases [25]", "value": 105.55, "unit": "%"}, {"measurement": "remaining activity at 1 µM", "setting": "panel of 391 kinases [25]; [27]", "value": 109, "unit": "%"}, {"measurement": "% Enzyme Activity (relative to DMSO controls)", "setting": "panel of 391 kinases [26]", "value": 102.88, "unit": "%"}, {"measurement": "remaining activity at 1 µM", "setting": "panel of 391 kinases [26]; [27]", "value": 103, "unit": "%"}]}]}
